The term inhibition denotes the change of the read-out against control, counted positive when it falls. As a reminder, the MTD is the largest dose that counted as tolerated.

Experimental findings from patent publication US20240423995A1, “C-KIT INHIBITORS AND USES FOR TREATING AND PREVENTING INFLAMMATORY CONDITIONS” (GEORGETOWN UNIVERSITY, priority 2023, published 2024) are described below.

The target in data set [1] is T1, KIT autoinhibited (Homo sapiens, UniProt P10721).
T1 construct: purchased Eurofins DiscoverX Corporation
The data set can be described thus: KINOMEscan competition binding screen, KIT autoinhibited. The following applies: for remaining binding at 10 µM: read-out: % Ctrl @ 10 μM. As to the method: (§1) The KINOMEscan™ screening platform (Eurofins DiscoverX Corporation, San Diego, USA) was performed using an active site-directed competition binding assay to quantitatively measure interactions between BK40143, BK40197, BK40195, and BK40196 and more than 450 human kinases and disease relevant mutant variants. […] Screening “hits” were identified by measuring the amount of kinase captured in test (BK40143, BK40197, BK40195, and BK40196) versus control samples by using a quantitative and ultra-sensitive qPCR method that detects the associated DNA label. BK40143, BK40197, BK40195, and BK40196 were screened at 10 μM concentration, and results for primary screen binding interactions were reported as ‘% Ctrl’ (POC), where lower numbers indicate stronger hits and calculated as follows:
(§2) [formula] • test compound=BK40143 or BK40197 or BK40195 or BK40196 • negative control=DMSO (100% Ctrl) • positive control=control compound (0% Ctrl)
(§3) Based on screening data of profiled compounds, a proportional relationship between primary screening results and corresponding compound/target affinities can be described as binding constants (Kd values) for the indicated ranges of percent of control (PoC) values, with tighter binding (higher affinity) interactions associated with lower PoC values, and weaker binding (lower affinity) associated with higher PoC values. Briefly, kinase-tagged T7 phage strains were grown in parallel in 24-well blocks in an E. coli host derived from the BL21 strain. E. coli were grown to log-phase and infected with T7 phage from a frozen stock (multiplicity of infection=0.4) and incubated with shaking at 32° C. until lysis (90-150 minutes). The lysates were centrifuged (6,000×g) and filtered ([…]) to remove cell debris. The remaining kinases were produced in HEK-293 cells and subsequently tagged with DNA for qPCR detection. Streptavidin-coated magnetic beads were treated with biotinylated small molecule ligands for 30 minutes at room temperature to generate affinity resins for kinase assays. The liganded beads were blocked with excess biotin and washed with blocking buffer (SeaBlock (Pierce), 1% BSA, 0.05% Tween 20, 1 mM DTT) to remove unbound ligand and to reduce non-specific phage binding. Binding reactions were assembled by combining kinases, liganded affinity beads, and test compounds in 1× binding buffer (20% SeaBlock, 0.17×PBS, 0.05% Tween 20, 6 mM DTT). Test compounds were prepared as 100× stocks in 100% DMSO and directly diluted into the assay. All reactions were performed in polypropylene 384-well plates in a final volume of 0.02 ml. The assay plates were incubated at room temperature with shaking for 1 hour and the affinity beads were washed with wash buffer (1×PBS, 0.05% Tween 20). The beads were then re-suspended in elution buffer (1×PBS, 0.05% Tween 20, 0.5 μM non-biotinylated affinity ligand) and incubated at room temperature with shaking for 30 minutes. The kinase concentration in the eluates was measured by qPCR.

For data set [2], the target named is T2, KIT (Homo sapiens, UniProt P10721).
T2 construct: purchased Eurofins DiscoverX Corporation
The data set can be described thus: KINOMEscan competition binding screen, KIT. The note with it: for remaining binding at 10 µM: lower = stronger binding, read-out: % Ctrl @ 10 μM. As to the method: as §1, §2, §3

In data set [3] the test system is mast cells (spleen). The data set can be described thus: MC maturation in the spleen of transgenic APP mice by flow cytometry. Type of data set: in vivo. The following applies: 20 and 40 mg/kg intraperitoneal, six weeks, vs DMSO. On the procedure:
The studies in this example compared the number of immature MCs to the number of mature MCs in the spleen.
12-month-old transgenic APP mice were injected intraperitoneally with 20 mg/kg BK40196, 40 mg/kg BK40196, or DMSO for six weeks before having spleens collected for analysis. Spleen samples were then treated with the three flow-conjugated antibodies and analyzed for maturation of mast cell progenitors to mature mast cells, as described in Example 5. Differences were compared using an unpaired Student's t-test.

Data set [4] relates to peripheral mast cells. The data set can be described thus: Mature peripheral mast cells in blood of wild-type C57BL/6 mice by flow cytometry. The format is in vivo. The note with it: 50 mg/kg per day intraperitoneal for five days, p=0.06. On the procedure:
(§4) Wild-type C57BL/6 mice were dosed with BK40197 via intraperitoneal injection at 50 mg/kg (maximum tolerated dose) per day for five days before blood samples were taken and peripheral mast cells were isolated via flow cytometry. Cell gating was performed using antibodies against specific epitopes for cells: CD45 antibody for leukocytes, FceR1 antibody for mature mast cells, and CD117 antibody for immature and mature mast cells.
(In flow cytometry, cells or beads pass a laser one at a time.)

Data set [5] in a line: Maximum tolerated dose in wild-type C57BL/6 mice. The following applies: mouse, in vivo, ip, intraperitoneal injection, per day. On the procedure:
as §4

T1 sequence (P10721 544-976 limits assumed): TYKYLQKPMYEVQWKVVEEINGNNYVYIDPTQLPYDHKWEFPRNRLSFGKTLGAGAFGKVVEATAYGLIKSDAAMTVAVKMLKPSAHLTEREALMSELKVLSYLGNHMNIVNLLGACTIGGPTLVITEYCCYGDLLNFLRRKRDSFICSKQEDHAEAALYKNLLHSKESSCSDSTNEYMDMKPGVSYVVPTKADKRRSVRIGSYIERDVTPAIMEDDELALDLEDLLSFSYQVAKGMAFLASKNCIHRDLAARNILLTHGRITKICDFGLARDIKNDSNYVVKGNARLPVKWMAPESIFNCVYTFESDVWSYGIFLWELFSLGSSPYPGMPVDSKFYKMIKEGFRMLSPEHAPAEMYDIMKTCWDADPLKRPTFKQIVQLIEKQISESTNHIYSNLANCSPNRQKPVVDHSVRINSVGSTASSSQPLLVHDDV
T2 sequence (P10721 26-976): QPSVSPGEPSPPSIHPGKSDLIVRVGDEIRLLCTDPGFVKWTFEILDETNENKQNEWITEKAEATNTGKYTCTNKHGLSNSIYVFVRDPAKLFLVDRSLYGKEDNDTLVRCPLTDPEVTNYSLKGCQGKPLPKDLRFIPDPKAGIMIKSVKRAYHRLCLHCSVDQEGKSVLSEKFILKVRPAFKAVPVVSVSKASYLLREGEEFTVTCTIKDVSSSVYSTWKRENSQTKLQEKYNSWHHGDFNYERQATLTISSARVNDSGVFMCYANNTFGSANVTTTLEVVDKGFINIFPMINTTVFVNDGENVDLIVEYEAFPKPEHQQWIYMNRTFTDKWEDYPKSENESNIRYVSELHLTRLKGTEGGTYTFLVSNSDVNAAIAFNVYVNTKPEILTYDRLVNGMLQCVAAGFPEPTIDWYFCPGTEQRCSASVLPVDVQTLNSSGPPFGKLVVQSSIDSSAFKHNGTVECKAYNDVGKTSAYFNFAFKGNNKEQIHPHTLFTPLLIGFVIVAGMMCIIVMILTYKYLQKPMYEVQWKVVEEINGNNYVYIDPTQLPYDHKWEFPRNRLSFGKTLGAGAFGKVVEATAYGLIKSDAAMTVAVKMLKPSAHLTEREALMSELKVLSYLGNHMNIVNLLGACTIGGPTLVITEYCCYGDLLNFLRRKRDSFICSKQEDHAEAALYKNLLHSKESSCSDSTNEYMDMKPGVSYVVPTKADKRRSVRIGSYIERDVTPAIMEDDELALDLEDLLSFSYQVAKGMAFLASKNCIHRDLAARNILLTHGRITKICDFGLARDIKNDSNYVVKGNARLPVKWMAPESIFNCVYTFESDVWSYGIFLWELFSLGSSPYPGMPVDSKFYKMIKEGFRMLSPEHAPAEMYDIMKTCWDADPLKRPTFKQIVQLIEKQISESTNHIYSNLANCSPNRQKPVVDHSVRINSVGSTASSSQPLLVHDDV

As to `Cc1cccc(-c2cc3nccc(Nc4ccccc4)c3s2)c1` [BK40143], in data set [1], the inhibition at 10 µM was found to be 31% and the remaining binding at 10 µM was determined as 69%. Moreover, in data set [2], the inhibition at 10 µM was determined as 100% and the remaining binding at 10 µM stood at 0%.

With `COc1cccc(Nc2ccnc3cc(-c4cccc(C)c4)sc23)c1` [BK40195], the figures for the inhibition at 10 µM in data set [1] and in data set [2] were 78% and 100%, respectively. Moreover, the figures for the remaining binding at 10 µM in data set [1] and in data set [2] were 22% and 0%, respectively.

Turning to `Cc1cccc(-c2cc3nccc(Nc4cccc(O)c4)c3s2)c1` [BK40196], in data set [1], the inhibition at 10 µM turned out to be 44% and the remaining binding at 10 µM was 56%. In addition, in data set [2], at 10 µM the inhibition was 100% and the remaining binding at 10 µM amounted to 0%. In data set [3] (dose-dependent), the “total number of mature MCs (CD117+/FceR1+) in the spleen” value is on record as “significantly reduced” and the “total number of mature MCs (FceR1+) in the spleen” value is listed as “significantly reduced”. In data set [3], the “ratio of immature MCs (CD117 only) to mature MCs (CD117 and FceR1) in the spleen” value is on record as “increased”.

Take `Cc1cccc(-c2cc3nccc(N4CCOCC4)c3s2)c1` [BK40197]: in data set [1], the inhibition at 10 µM worked out at 48% and the remaining binding at 10 µM was 52%. Besides, in data set [4], the “reduction of gating for mature MCs (CD117+/FceR1+) compared to DMSO” value is on record as 48%. In data set [2], at 10 µM the inhibition was 97.7% and the remaining binding at 10 µM amounted to 0.3%. Also, the maximum tolerated dose (MTD) at 5 days in data set [5] was found to be 50 mg/kg.
